According to PubChem BioAssay AID330 (DTP/NCI, 2004):
“And” between values parts separate entries of the source, which are not always exact repeats. Identical values can stand only once. Inconclusive results and toxic doses are left out.

Tested on: P388 leukemia ip, CD2F1 mice, survival T/C
Experiment: NCI In Vivo Anticancer Drug Screen. Data for tumor model P388 Leukemia (intraperitoneal) in CD2F1 (CDF1) mice
Conditions: endpoint: median survival time, higher = longer survival
In short: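 Mice carrying the transplanted tumor received test compound or vehicle. Survival was recorded in each group, and the value is the treated-group measurement divided by that of the vehicle-treated control group.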

[1] = dose: 50.0 mg/kg/injection, schedule: Q01DX005 (ip), vehicle: saline with Tween-80
[2] = dose: 100.0 mg/kg/injection, schedule: Q01DX005 (ip), vehicle: saline with Tween-80
[3] = dose: 200.0 mg/kg/injection, schedule: Q01DX005 (ip), vehicle: saline with Tween-80
[4] = dose: 12.5 mg/kg/injection, schedule: Q01DX005 (ip), vehicle: Klucel (hydroxypropylcellulose) (HPC)
[5] = dose: 25.0 mg/kg/injection, schedule: Q01DX005 (ip), vehicle: Klucel (hydroxypropylcellulose) (HPC)
[6] = dose: 50.0 mg/kg/injection, schedule: Q01DX005 (ip), vehicle: Klucel (hydroxypropylcellulose) (HPC)
[7] = dose: 60.0 mg/kg/injection, schedule: Q01DX005 (ip), vehicle: saline with Tween-80
[8] = dose: 120.0 mg/kg/injection, schedule: Q01DX005 (ip), vehicle: saline with Tween-80
[9] = dose: 240.0 mg/kg/injection, schedule: Q01DX005 (ip), vehicle: saline with Tween-80
[10] = dose: 12.5 mg/kg/injection, schedule: Q01DX009 (ip), vehicle: other
[11] = dose: 50.0 mg/kg/injection, schedule: Q01DX009 (ip), vehicle: other
[12] = dose: 100.0 mg/kg/injection, schedule: Q01DX009 (ip), vehicle: other
[13] = dose: 200.0 mg/kg/injection, schedule: Q01DX009 (ip), vehicle: other
[14] = dose: 50.0 mg/kg/injection, schedule: Q01DX009 (ip), vehicle: saline
[15] = dose: 25.0 mg/kg/injection, schedule: Q01DX009 (ip), vehicle: saline with Tween-80
[16] = dose: 50.0 mg/kg/injection, schedule: Q01DX009 (ip), vehicle: saline with Tween-80
[17] = dose: 100.0 mg/kg/injection, schedule: Q01DX009 (ip), vehicle: saline with Tween-80
[18] = dose: 200.0 mg/kg/injection, schedule: Q01DX009 (ip), vehicle: saline with Tween-80
[19] = dose: 3.75 mg/kg/injection, schedule: Q01DX005 (ip), vehicle: saline with Tween-80
[20] = dose: 15.0 mg/kg/injection, schedule: Q01DX005 (ip), vehicle: saline with Tween-80
[21] = dose: 12.5 mg/kg/injection, schedule: Q01DX009 (ip), vehicle: saline with Tween-80

SMILES: CCCCC(=O)Nc1ccc(S(=O)(=O)O)c(N=NC2C(=O)N(c3ccccc3)N=C2C)c1 (centres undefined)
- T/C (dose: 100.0 mg/kg/injection, schedule: Q04DX003 (ip), vehicle: saline): 110 % of control
- T/C (dose: 200.0 mg/kg/injection, schedule: Q04DX003 (ip), vehicle: saline): 100 % of control
- T/C (dose: 400.0 mg/kg/injection, schedule: Q04DX003 (ip), vehicle: saline): 100 % of control

SMILES: Nc1nc(-c2ccc(Nc3ccnc4cc(Cl)ccc34)cc2)cs1
- T/C [1]: 96 % of control
- T/C [2]: 88 % of control
- T/C [3]: 86 % of control

SMILES: O=C1NC(=O)c2ccc3c4ccc5c6c(ccc(c7ccc1c2c73)c64)C(=O)N(c1ccccc1)C5=O
- T/C (dose: 6.25 mg/kg/injection, schedule: Q01DX005 (ip), vehicle: Klucel (hydroxypropylcellulose) (HPC)): 99 % of control
- T/C [4]: 101 % of control and 94 % of control
- T/C [5]: 107 % of control
- T/C [6]: 93 % of control
- T/C (dose: 100.0 mg/kg/injection, schedule: Q01DX005 (ip), vehicle: Klucel (hydroxypropylcellulose) (HPC)): 95 % of control
- T/C (dose: 200.0 mg/kg/injection, schedule: Q01DX005 (ip), vehicle: Klucel (hydroxypropylcellulose) (HPC)): 88 % of control

SMILES: CNC(=S)NNc1ccc(Cl)nn1
- T/C (dose: 100.0 mg/kg/injection, schedule: Q01DX001 (ip), vehicle: saline): 96 % of control
- T/C (dose: 200.0 mg/kg/injection, schedule: Q01DX001 (ip), vehicle: saline): 96 % of control
- T/C (dose: 400.0 mg/kg/injection, schedule: Q01DX001 (ip), vehicle: saline): 102 % of control

SMILES: CCOc1cc2c(cc1C(C)c1ccc(O)cc1)OCO2 (centres undefined)
- T/C (dose: 50.0 mg/kg/injection, schedule: Q01DX005 (ip), vehicle: distilled water + Tween-80): 102 % of control
- T/C (dose: 100.0 mg/kg/injection, schedule: Q01DX005 (ip), vehicle: distilled water + Tween-80): 105 % of control
- T/C (dose: 200.0 mg/kg/injection, schedule: Q01DX005 (ip), vehicle: distilled water + Tween-80): 109 % of control

SMILES: CCCCC1(CCCCCCCCC(O)CC(=O)OCC)OCCO1 (centres undefined)
- T/C (dose: 100.0 mg/kg/injection, schedule: Q04DX002 (ip), vehicle: Klucel (hydroxypropylcellulose) (HPC)): 104 % of control
- T/C (dose: 200.0 mg/kg/injection, schedule: Q04DX002 (ip), vehicle: Klucel (hydroxypropylcellulose) (HPC)): 100 % of control
- T/C (dose: 400.0 mg/kg/injection, schedule: Q04DX002 (ip), vehicle: Klucel (hydroxypropylcellulose) (HPC)): 96 % of control

SMILES: COc1nc(NC2OCC(O)C(O)C2O)c(Cl)c(=O)n1C (centres undefined)
- T/C [7]: 93 % of control
- T/C [8]: 90 % of control
- T/C [9]: 100 % of control

SMILES: CCOC(=O)Nc1cc(OC)cc2ccc(C)nc12
- T/C [10]: 88 % of control
- T/C [11]: 98 % of control
- T/C [12]: 99 % of control
- T/C [13]: 98 % of control

SMILES: COc1cccc2c(NCCCCCCNc3c4ccccc4nc4c(OC)cccc34)c3ccccc3nc12
- T/C (dose: 0.62 mg/kg/injection, schedule: Q## X009 (ip), vehicle: lactic acid): 123 % of control
- T/C (dose: 0.63 mg/kg/injection, schedule: Q01DX009 (ip), vehicle: other): 102 % of control
- T/C (dose: 1.25 mg/kg/injection, schedule: Q01DX009 (ip), vehicle: other): 122 % of control
- T/C (dose: 2.5 mg/kg/injection, schedule: Q## X009 (ip), vehicle: lactic acid): 160 % of control
- T/C (dose: 5.0 mg/kg/injection, schedule: Q## X009 (ip), vehicle: lactic acid): 161 % of control
- T/C (dose: 10.0 mg/kg/injection, schedule: Q## X009 (ip), vehicle: lactic acid): 119 % of control

SMILES: CCCCCCCCCCCCCCCC[N+]1([O-])CCCCC1
- T/C (dose: 12.5 mg/kg/injection, schedule: Q01DX009 (ip), vehicle: saline): 101 % of control
- T/C (dose: 25.0 mg/kg/injection, schedule: Q01DX009 (ip), vehicle: saline): 108 % of control
- T/C [14]: 100 % of control and 107 % of control

SMILES: NC(=O)NC(N)=S
- T/C [15]: 100 % of control
- T/C [16]: 105 % of control
- T/C [17]: 99 % of control
- T/C [18]: 98 % of control

SMILES: CC1=C(N(C)C)C(=O)N(c2ccccc2)CN1C
- T/C [19]: 111 % of control
- T/C (dose: 7.5 mg/kg/injection, schedule: Q01DX005 (ip), vehicle: saline with Tween-80): 102 % of control
- T/C [20]: 101 % of control and 103 % of control

SMILES: Brc1ccc(C[N+]23CCN(CC2)CC3)cc1
- T/C [21]: 95 % of control
- T/C [15]: 90 % of control
- T/C [16]: 90 % of control

SMILES: CN/N=C\c1cc2ccccc2c2ccccc12
- T/C [1]: 96 % of control
- T/C [2]: 91 % of control
- T/C [3]: 88 % of control

SMILES: CCOC(=O)C(Cc1ccc(Oc2nc3ccccc3o2)cc1)NC(C)=O (centres undefined)
- T/C (dose: 25.0 mg/kg/injection, schedule: Q01DX001 (ip), vehicle: Klucel (hydroxypropylcellulose) (HPC)): 110 % of control
- T/C (dose: 50.0 mg/kg/injection, schedule: Q01DX001 (ip), vehicle: Klucel (hydroxypropylcellulose) (HPC)): 112 % of control
- T/C (dose: 100.0 mg/kg/injection, schedule: Q01DX001 (ip), vehicle: Klucel (hydroxypropylcellulose) (HPC)): 109 % of control

SMILES: COc1ccc(C2=NCC2(Cl)Cl)cc1
- T/C [10]: 97 % of control
- T/C (dose: 25.0 mg/kg/injection, schedule: Q01DX009 (ip), vehicle: other): 95 % of control
- T/C [11]: 105 % of control
- T/C [12]: 96 % of control
- T/C [13]: 99 % of control

SMILES: C1=CCC2COCC2C1 (centres undefined)
- T/C [16]: 98 % of control
- T/C [17]: 102 % of control
- T/C [18]: 100 % of control

SMILES: O=C(O)/C=C\C(=O)O.OO.[O]=[V]
- T/C [19]: 100 % of control
- T/C [20]: 109 % of control

SMILES: Cc1cc(C)cc([C@H](C)N=Cc2cc(Br)ccc2O)c1
- T/C (dose: 100.0 mg/kg/injection, schedule: Q04DX002 (ip), vehicle: saline with Tween-80): 100 % of control
- T/C (dose: 200.0 mg/kg/injection, schedule: Q04DX002 (ip), vehicle: saline with Tween-80): 100 % of control
- T/C (dose: 400.0 mg/kg/injection, schedule: Q04DX002 (ip), vehicle: saline with Tween-80): 108 % of control

SMILES: COc1ccc(C(c2cc(C(C)(C)C)c(O)c(C(C)(C)C)c2)N2CCCCC2)cc1 (centres undefined)
- T/C [1]: 102 % of control
- T/C [2]: 109 % of control
- T/C [3]: 112 % of control

SMILES: CC1=C(Br)C(c2ccccc2)=Nc2ccccc2N1
- T/C [21]: 123 % of control
- T/C [15]: 116 % of control
- T/C [14]: 119 % of control
- T/C (dose: 100.0 mg/kg/injection, schedule: Q01DX009 (ip), vehicle: saline): 110 % of control

SMILES: N=C(N)N1CCNc2ccccc2C1
- T/C (dose: 25.0 mg/kg/injection, schedule: Q04DX003 (ip), vehicle: saline with Tween-80): 105 % of control
- T/C (dose: 50.0 mg/kg/injection, schedule: Q04DX003 (ip), vehicle: saline with Tween-80): 99 % of control
- T/C (dose: 100.0 mg/kg/injection, schedule: Q04DX003 (ip), vehicle: saline with Tween-80): 104 % of control

SMILES: S=C1CC(c2ccc(Sc3ccccc3)cc2)=Nc2ccccc2N1
- T/C (dose: 25.0 mg/kg/injection, schedule: Q01DX009 (ip), vehicle: Klucel (hydroxypropylcellulose) (HPC)): 90 % of control
- T/C (dose: 50.0 mg/kg/injection, schedule: Q01DX009 (ip), vehicle: Klucel (hydroxypropylcellulose) (HPC)): 90 % of control
- T/C (dose: 100.0 mg/kg/injection, schedule: Q01DX009 (ip), vehicle: Klucel (hydroxypropylcellulose) (HPC)): 99 % of control and 87 % of control
- T/C (dose: 200.0 mg/kg/injection, schedule: Q01DX009 (ip), vehicle: Klucel (hydroxypropylcellulose) (HPC)): 100 % of control

SMILES: C1CC[C@@]2([C@]34CCCC[C@H]3O4)O[C@H]2C1
- T/C (dose: 60.0 mg/kg/injection, schedule: Q01DX005 (ip), vehicle: Klucel (hydroxypropylcellulose) (HPC)): 99 % of control
- T/C (dose: 120.0 mg/kg/injection, schedule: Q01DX005 (ip), vehicle: Klucel (hydroxypropylcellulose) (HPC)): 98 % of control
- T/C (dose: 240.0 mg/kg/injection, schedule: Q01DX005 (ip), vehicle: Klucel (hydroxypropylcellulose) (HPC)): 95 % of control and 96 % of control

SMILES: COC(=O)N(c1ccccc1)c1ccccn1
- T/C [7]: 106 % of control
- T/C [8]: 97 % of control
- T/C [9]: 100 % of control

SMILES: C1=C(N2CCOCC2)N(c2ccccc2)c2ccccc2N=C1N1CCCC1
- T/C [4]: 100 % of control
- T/C [5]: 91 % of control
- T/C [6]: 103 % of control and 96 % of control
